Where two headings read alike, the source gives them in different places.
Legend:
[1] = test system: Ad2.2 pre-mRNA; test: In vitro splicing (IVS) assay with HeLa nuclear extract, RT-qPCR of spliced product; type: biochemical; conditions: payload, HELA.2, read-out: qPCR-IVS-ATS GMean IC50 (nM) Ad2.2 HELA.2
Procedure: 2.1 In Vitro Splicing (IVS)
To evaluate payload activity in a cell-free system, an in vitro splicing assay was performed. The payloads were incubated with nuclear extracts and pre-mRNA substrate minigenes.
HeLa nuclear extract preparation: HeLa S3 cell pellets were resuspended in hypotonic buffer (10 mM HEPES pH 7.9, 1.5 mM MgCl2, 10 mM KCl, 0.2 mM PMSF, 0.5 mM DTT) and the suspension was brought up to a total of 5 packed cell volume (PCV). After centrifugation, the supernatant was discarded, and the cells were brought up to 3 PCV with hypotonic buffer and incubated on ice for 10 min. Cells were lysed using a dounce homogenizer and then centrifuged. The supernatant was discarded, and the pellet was resuspended with […] packed nuclear volume (PNV) of low salt buffer (20 mM HEPES pH 7.9, 1.5 mM MgCl2, 20 mM KCl, 0.2 mM EDTA, 25% glycerol, 0.2 mM PMSF, 0.5 mM DTT), followed by 1/2 PNV of high salt buffer (same as low salt buffer except 1.4 M KCl). The nuclei were gently mixed for 30 min before centrifuging. The supernatant (nuclear extract) was then dialyzed into storage buffer (20 mM HEPES pH 7.9, 100 mM KCl, 0.2 mM EDTA, 20% glycerol, 0.2 mM PMSF, 0.5 mM DTT). Protein concentration was determined using NanoDrop 8000 UV-Vis spectrophotometer (ThermoFisher Scientific).
IVS: All Ad2-derived sequences (Pellizzoni et al. (1998) Cell 95(5):615-24) were cloned into pcDNA3.1(+) vector (Promega) using 5′ EcoRI and 3′ Xbal restriction sites. The plasmids were linearized using Xbal and used as DNA templates in in vitro transcription reactions. The FtzΔi intron-less plasmid (Luo and Reed (1999) 96(26):14937-42) was linearized using EcoRI. All RNAs were in vitro transcribed and then purified using MEGAScript T7 (Invitrogen) and MegaClear (Invitrogen) kits, respectively. For splicing reactions using Ad2 variant pre-mRNAs, […] were prepared using 8 μg nuclear extracts prepared from HeLa S3, 2 ng pre-mRNA, 0.2 ng FTZΔi, and varying concentrations of compounds or DMSO. After a 15 min pre-incubation at 30° C., 1 μL splicing activation buffer (0.5 mM ATP, 20 mM creatine phosphate, 1.6 mM MgCl2) was added, and the reactions were incubated for 90 min at 30° C. The reactions were then quenched with 13 μL DMSO, and 25 nL was used for RT-qPCR. RT-qPCR reactions were prepared using TaqMan RNA-to-CT 1-step kit (Life Technologies), RNA from splicing reactions, Ad2 (forward: […]; reverse: […]; probe: CTGTTGGGCTCGCGGTTG) and Ftz (forward: […]; reverse: […]; probe: […]) mRNA primer-probe sets. Prism 7 (Graphpad) was used for non-linear regression curve fitting of the formed spliced product and normalized to the control (DMSO) sample.

[2] = Caco-2 permeability of ADC payload; type: in vitro ADME; conditions: human, payload at 10 μM, 2 hours, apical to basolateral, read-out: Permeability Mean Caco-2 A-B Perm
Procedure: 3.5.2 Caco-2 Permeability of ADC Payload
Caco-2 cells were cultured for 21 days in transwell 24-well plates at 37° C., 95% humidity, 5% CO2. Integrity of cell monolayer was confirmed by TEER (transepithelial electrical resistance) and Lucifer yellow. Payloads were spiked in duplicate at 10 μM, separately, on both sides of the cell monolayer. Permeability rates from the apical to basolateral (A-B) direction and the basolateral to apical (B-A) direction were determined by sampling aliquots from both chambers immediately after treatment (t=0) and following incubation for 2 hours. Samples were protein precipitated with organic solvent containing internal standard and analyzed by LC-MS/MS (SCI EX; API 5500). The area ratio responses of payload/internal standard over time in both directions were used to generate permeability (cm/sec) values. Efflux ratio was calculated by dividing B-A/A-B. Control compounds for low and high permeability and efflux behaved as expected.

[3] = test system: Ad2.1; test: In vitro splicing (IVS) assay, qPCR-IVS-ATS, Ad2.1 substrate, HELA.2; type: biochemical; conditions: payload, read-out: qPCR-IVS-ATS GMean IC50 (nM) Ad2.1 HELA.2
[4] = test system: THP1.1; test: Herboxidiene splicing modulator cell potency, CTGlo-ATS, THP1.1, 72 h; type: cell-based
[5] = test system: NCIH1650.1; test: Herboxidiene splicing modulator cell potency, CTGlo-ATS, NCIH1650.1, 72 h; type: cell-based
[6] = biological target: SF3b complex (Homo sapiens, UniProt O75533+Q7RTV0); test: Payload binding to the SF3b complex (SF3B1 binding); conditions: SF3B1 (WT), HELA.2, read-out: SPA-ATS GMean IC50 (nM) SF3B1 (WT) HELA.2
Procedure: Exemplary herboxidiene spliceosome modulator payloads used in the preparation of ADCs were profiled. Payloads were evaluated for binding to the SF3b complex, in vitro splicing activity, and ability to inhibit cell growth.

[7] = read-out: CTGIo-ATS GMean GI50 (nM) 72 h THP1.1
[8] = read-out: CTGIo-ATS GMean GI50 (nM) 72 h NCIH1650.1
[9] = payload, THP1.1, read-out: CTGIo-ATS GMean GI50 (nM) 72 h THP1.1
[10] = payload, NCIH1650.1, read-out: CTGIo-ATS GMean GI50 (nM) 72 h NCIH1650.1

Structure (SMILES)	IC50 [1] [nM]	Papp A→B at 2 h, 10 μM [2] [×10⁻⁶ cm/s]	IC50 [3] [nM]	CTGIo-ATS GMean LD50 (nM) 72 h THP1.1 ([4]; payload) [nM]	CTGIo-ATS Mean MinResponse % 72 h THP1.1 ([4]; payload) [%]	GI50 [4, 7] [nM]	CTGIo-ATS GMean LD50 (nM) 72 h NCIH1650.1 ([5]; payload) [nM]	CTGIo-ATS Mean MinResponse % 72 h NCIH1650.1 ([5]; payload) [%]	GI50 [5, 8] [nM]	GI50 [4, 9] [nM]	GI50 [5, 10] [nM]	IC50 [6] [nM]
CO[C@H]([C@@H](C)[C@H]1O[C@]1(C)C[C@H](C)/C=C/C=C(\C)[C@H]1O[C@@H](CNC(=O)CCOCCOC(=O)N2CCCNCC2)CC[C@@H]1C)[C@@H](C)O [Compound H9, 2-(3-((((2R,5S,6S)-6-((S,2E,4E)-7-((2R,3R)-3-((2R,3R,4R)-4-hydroxy-3-methoxypentan-2-yl)-2-methyloxiran-2-yl)-6-methylhepta-2,4-dien-2-yl)-5-methyltetrahydro-2H-pyran-2-yl)methyl)amino)-3-oxopropoxy)ethyl 1,4-diazepane-1-carboxylate]	8.66	11.6	9.68	14.441	−101.645	1.34	2.681	2.327	0.481			
CNC1CCN(C(=O)O[C@@H]2C[C@H](CC(=O)O)O[C@H](/C(C)=C/C=C/[C@@H](C)C[C@@]3(C)O[C@@H]3[C@H](C)[C@@H](OC)[C@@H](C)O)[C@H]2C)C1 (stereo partly drawn) [Compound H3, 2-((2R,4R,5S,6S)-6-((S,2E,4E)-7-((2R,3R)-3-((2R,3R,4R)-4-hydroxy-3-methoxypentan-2-yl)-2-methyloxiran-2-yl)-6-methylhepta-2,4-dien-2-yl)-5-methyl-4-((3-(methylamino)pyrrolidine-1-carbonyl)oxy)tetrahydro-2H-pyran-2-yl)acetic acid]	35.2		562	478.332	−92.943		>10000	19.182		54.6	115	
CNC1CCN(C(=O)OCCCCCC(=O)NC[C@H]2CC[C@H](C)[C@@H](/C(C)=C/C=C/[C@@H](C)C[C@@]3(C)O[C@@H]3[C@H](C)[C@@H](OC)[C@@H](C)O)O2)C1 (stereo partly drawn) [Compound H7, 6-((((2R,5S,6S)-6-((S,2E,4E)-7-((2R,3R)-3-((2R,3R,4R)-4-hydroxy-3-methoxypentan-2-yl)-2-methyloxiran-2-yl)-6-methylhepta-2,4-dien-2-yl)-5-methyltetrahydro-2H-pyran-2-yl)methyl)amino)-6-oxohexyl 3-(methylamino)pyrrolidine-1-carboxylate]	12.1		14.5	6.756	−99.328		>10000	5.754		0.65	0.772	
CO[C@H]([C@@H](C)[C@H]1O[C@]1(C)C[C@H](C)/C=C/C=C(\C)[C@H]1O[C@@H](CNC(=O)CCOCCOC(=O)N2CCNCC2)CC[C@@H]1C)[C@@H](C)O [Compound H8, 2-(3-((((2R,5S,6S)-6-((S,2E,4E)-7-((2R,3R)-3-((2R,3R,4R)-4-hydroxy-3-methoxypentan-2-yl)-2-methyloxiran-2-yl)-6-methylhepta-2,4-dien-2-yl)-5-methyltetrahydro-2H-pyran-2-yl)methyl)amino)-3-oxopropoxy)ethyl piperazine-1-carboxylate]	12.9		12.9	11.851	−102.030		>10000	17.053		1.22	1.1	
CO[C@H]([C@@H](C)[C@H]1O[C@]1(C)C[C@H](C)/C=C/C=C(\C)[C@H]1O[C@@H](CC(=O)N[C@@H](CCCOC(=O)N2CCNCC2)C(=O)O)CC[C@@H]1C)[C@@H](C)O [Compound H4, (S)-2-(2-((2R,5S,6S)-6-((S,2E,4E)-7-((2R,3R)-3-((2R,3R,4R)-4-hydroxy-3-methoxypentan-2-yl)-2-methyloxiran-2-yl)-6-methylhepta-2,4-dien-2-yl)-5-methyltetrahydro-2H-pyran-2-yl)acetamido)-5-((piperazine-1-carbonyl)oxy)pentanoic acid]	29.6	19.3	31.6	5337.399	−40.902	649	2575.18	728.583	464			14.5
CNC1CCN(C(=O)OCCOCCC(=O)NC[C@H]2CC[C@H](C)[C@@H](/C(C)=C/C=C/[C@@H](C)C[C@@]3(C)O[C@@H]3[C@H](C)[C@@H](OC)[C@@H](C)O)O2)C1 (stereo partly drawn) [Compound H10, 2-(3-((((2R,5S,6S)-6-((S,2E,4E)-7-((2R,3R)-3-((2R,3R,4R)-4-hydroxy-3-methoxypentan-2-yl)-2-methyloxiran-2-yl)-6-methylhepta-2,4-dien-2-yl)-5-methyltetrahydro-2H-pyran-2-yl)methyl)amino)-3-oxopropoxy)ethyl 3-(methylamino)pyrrolidine-1-carboxylate]	16.5		21.7	21.021	−98.789		>10000	9.194		2.06	3.04	
CO[C@H]([C@@H](C)[C@H]1O[C@]1(C)C[C@H](C)/C=C/C=C(\C)[C@H]1O[C@@H](CNC(=O)CCCCCOC(=O)N2CCCNCC2)CC[C@@H]1C)[C@@H](C)O [Compound H6, 6-((((2R,5S,6S)-6-((S,2E,4E)-7-((2R,3R)-3-((2R,3R,4R)-4-hydroxy-3-methoxypentan-2-yl)-2-methyloxiran-2-yl)-6-methylhepta-2,4-dien-2-yl)-5-methyltetrahydro-2H-pyran-2-yl)methyl)amino)-6-oxohexyl 1,4-diazepane-1-carboxylate]	7.19	5.72	9.51	6.522	−101.275	0.701	1.336	0.978	0.219			

Reference: US12514928B2, “Herboxidiene antibody-drug conjugates and methods of use” (Eisai R&D Management Co., Ltd., priority 2018, dated 2026)
